pIC50: −log10 of the molar value.
tested on: isolated saphenous artery of rabbits; assay: Vessel-relaxing action in vitro, phenylephrine-induced contractions of isolated saphenous artery rings; settings: Oryctolagus cuniculus; concentration reducing phenylephrine-induced contraction of rabbit saphenous artery rings by 50% of control
Protocol: The inhibition of the enzyme is investigated in an in vitro assay with recombinant Rho kinase II. The vessel-relaxing action is determined using phenylephrine-induced contractions of isolated rings of the saphenous artery of rabbits.
Vessel-Relaxing Action In Vitro
Individual 3-mm-wide rings of the isolated saphenous artery of rabbits are introduced into 5 ml organ baths with Krebs-Henseleit solution (37° C., gassed with carbogen). The vessel tone is monitored isometrically and registered. Contractions are induced by addition of […] of phenylephrine/ml, which is washed out again after 4 min. After a number of control cycles, the rings are preincubated with the substance to be examined, with the dosage being increased for each further cycle, and the subsequent contraction is compared to the intensity of the last control contraction.

SMILES	pIC50
N#Cc1c[nH]c2nccc(Oc3ccc(Nc4cc(C(F)(F)F)nc(N)n4)cc3F)c12 [Example 18, 4-(4-{[2-Amino-6-(trifluoromethyl)pyrimidin-4-yl]amino}-2-fluorophenoxy)-1H-pyrrolo[2,3-b]pyridin-3-carbonitrile]	7.72
Cc1c[nH]c2nccc(Oc3c(F)cc(Nc4cc(Cl)nc(N)n4)cc3F)c12 [Example 1, 6-Chloro-N^4-{3,5-difluoro-4-[(3-methyl-1H-pyrrolo[2,3-b]pyridin-4-yl)oxy]phenyl}pyrimidine-2,4-diamine]	7.17
Nc1nc(Nc2ccc(Oc3ccnc4[nH]cc(Cl)c34)c(F)c2)cc(C(F)(F)F)n1 [Example 9, N^4-{4-[(3-Chloro-1H-pyrrolo[2,3-b]pyridin-4-yl)oxy]-3-fluorophenyl}-6-(trifluoromethyl)pyrimidine-2,4-diamine]	7.35

Reference: patent US8329716B2, “Hetaryloxy-substituted phenylamino pyrimidines as Rho kinase inhibitors” (Bayer Intellectual Property GmbH, priority 2004, dated 2012)
